In ChEMBL document CHEMBL4402509, “Betulinic acid induces apoptosis and inhibits metastasis of human colorectal cancer cells in vitro and in vivo” (Bioorg Med Chem, 2019):
Active and inactive are the calls of the source. The rule behind the calls is not given here.

Experiments:
[1] = system: HCT-116; test: Induction of ROS generation in human HCT116 cells at 20 ug/ml incubated for 48 hrs by DCFH-DA staining based FCM analysis (reference value: 4.44%); type: functional
[2] = system: HCT-116; test: Induction of apoptosis in human HCT116 cells incubated for 48 hrs by annexin-V/PI staining based flow cyclometry; type: functional, cell-based
[3] = system: HCT-116; test: Induction of ROS generation in human HCT116 cells at 5 ug/ml incubated for 48 hrs by DCFH-DA staining based FCM analysis (reference value: 4.44%); type: functional
[4] = system: HCT-116; test: Induction of apoptosis in human HCT116 cells assessed as early apoptotic cell level at 20 ug/ml incubated for 48 hrs by annexin-V/PI staining based flow cyclometry (reference value: 1.84%); type: functional
[5] = system: HCT-116; test: Induction of apoptosis in human HCT116 cells assessed as necrotic cell level at 10 ug/ml incubated for 48 hrs by annexin-V/PI staining based flow cyclometry (reference value: 4.9%); type: functional
[6] = system: HCT-116; test: Induction of apoptosis in human HCT116 cells assessed as viable cell level at 10 ug/ml incubated for 48 hrs by annexin-V/PI staining based flow cyclometry (reference value: 81.8%); type: functional
[7] = Toxicity in BALB/c mouse xenografted with human HCT116 cells assessed as induction of alterations in kidney at 10 to 20 mg/kg, ip dosed daily for 21 days starting from 1 day post implantation and measured every three days by hematoxylin and eosin staining based histopathological analysis; type: organism-based; details: in vivo
[8] = Toxicity in BALB/c mouse xenografted with human HCT116 cells assessed as induction of alterations in spleen at 10 to 20 mg/kg, ip dosed daily for 21 days starting from 1 day post implantation and measured every three days by hematoxylin and eosin staining based histopathological analysis; type: organism-based; details: in vivo
[9] = system: HCT-116; test: Induction of apoptosis in human HCT116 cells assessed as increase in Bax protein expression incubated for 48 hrs by Western blot analysis; type: functional, cell-based
[10] = system: HCT-116; test: Induction of apoptosis in human HCT116 cells assessed as necrotic cell level at 5 ug/ml incubated for 48 hrs by annexin-V/PI staining based flow cyclometry (reference value: 4.9%); type: functional
[11] = system: HCT-116; test: Antitumor activity against human HCT116 cells xenografted in BALB/c mouse assessed as reduction in Ki-67 positive cells in tumor at 10 to 20 mg/kg, ip dosed daily for 21 days starting from 1 day post implantation and measured every three days by immunohistochemistry analysis; type: functional, organism-based
[12] = system: HCT-116; test: Induction of apoptosis in human HCT116 cells assessed as increase in cleaved capse-3 protein level incubated for 48 hrs by Western blot analysis; type: functional, cell-based
[13] = system: HCT-116; test: Induction of mitochondrial membrane potential loss in human HCT116 cells at 5 ug/ml incubated for 48 hrs by RH123.dye based FCM analysis (reference value: 6.37%); type: functional
[14] = system: SW480; test: Inhibition of colony formation of human SW480 cells assessed as reduction in clonogenic ability at 5 to 20 ug/ml incubated for 10 to 14 days by crystal violet staining based assay; type: functional, cell-based
[15] = system: HCT-116; test: Induction of apoptosis in human HCT116 cells assessed as early apoptotic cell level at 10 ug/ml incubated for 48 hrs by annexin-V/PI staining based flow cyclometry (reference value: 1.84%); type: functional
[16] = system: DLD-1; test: Inhibition of cell invasion in human DLD1 cells at 5 to 20 ug/ml incubated for 48 hrs by crystal violet staining based inverted microscopy; type: functional
[17] = Toxicity in BALB/c mouse xenografted with human HCT116 cells assessed as effect on body weight at 10 to 20 mg/kg, ip dosed daily for 21 days starting from 1 day post implantation and measured every three days; type: organism-based; details: in vivo
[18] = Toxicity in BALB/c mouse xenografted with human HCT116 cells assessed as induction of alterations in liver at 10 to 20 mg/kg, ip dosed daily for 21 days starting from 1 day post implantation and measured every three days by hematoxylin and eosin staining based histopathological analysis; type: organism-based; details: in vivo
[19] = system: DLD-1; test: Inhibition of colony formation of human DLD1 cells assessed as reduction in clonogenic ability at 5 to 20 ug/ml incubated for 10 to 14 days by crystal violet staining based assay; type: functional, cell-based
[20] = Toxicity in BALB/c mouse xenografted with human HCT116 cells assessed as induction of alterations in heart at 10 to 20 mg/kg, ip dosed daily for 21 days starting from 1 day post implantation and measured every three days by hematoxylin and eosin staining based histopathological analysis; type: organism-based; details: in vivo
[21] = system: HCT-116; test: Induction of apoptosis in human HCT116 cells assessed as viable cell level at 5 ug/ml incubated for 48 hrs by annexin-V/PI staining based flow cyclometry (reference value: 81.8%); type: functional
[22] = system: DLD-1; test: Inhibition of cell motility associated protein expression in human DLD1 cells assessed as effect on MMP9 expression at 5 to 20 ug/ml incubated for 48 hrs by Western blot analysis; type: functional, cell-based
[23] = system: HCT-116; test: Induction of ROS generation in human HCT116 cells at 5 to 20 ug/ml incubated for 48 hrs by DCFH-DA staining based FCM analysis; type: functional, cell-based
[24] = system: HCT-116; test: Induction of apoptosis in human HCT116 cells assessed as viable cell level at 20 ug/ml incubated for 48 hrs by annexin-V/PI staining based flow cyclometry (reference value: 81.8%); type: functional
[25] = system: DLD-1; test: Inhibition of cell motility associated protein expression in human DLD1 cells assessed as effect on MMP2 expression at 5 to 20 ug/ml incubated for 48 hrs by Western blot analysis; type: functional, cell-based
[26] = system: HCT-116; test: Induction of apoptosis in human HCT116 cells assessed as late apoptotic cell level at 20 ug/ml incubated for 48 hrs by annexin-V/PI staining based flow cyclometry (reference value: 5.11%); type: functional
[27] = system: HCT-116; test: Induction of mitochondrial membrane potential loss in human HCT116 cells at 10 ug/ml incubated for 48 hrs by RH123.dye based FCM analysis (reference value: 6.37%); type: functional
[28] = system: HCT-116; test: Induction of ROS generation in human HCT116 cells at 10 ug/ml incubated for 48 hrs by DCFH-DA staining based FCM analysis (reference value: 4.44%); type: functional
[29] = Toxicity in BALB/c mouse xenografted with human HCT116 cells assessed as induction of alterations in lung at 10 to 20 mg/kg, ip dosed daily for 21 days starting from 1 day post implantation and measured every three days by hematoxylin and eosin staining based histopathological analysis; type: organism-based; details: in vivo
[30] = system: HCT-116; test: Antitumor activity against human HCT116 cells xenografted in BALB/c mouse assessed as reduction in MMP2 positive cells in tumor at 10 to 20 mg/kg, ip dosed daily for 21 days starting from 1 day post implantation and measured every three days by immunohistochemistry analysis; type: functional, organism-based
[31] = system: HCT-116; test: Inhibition of colony formation of human HCT116 cells assessed as reduction in clonogenic ability at 5 to 20 ug/ml incubated for 10 to 14 days by crystal violet staining based assay; type: functional, cell-based
[32] = system: HCT-116; test: Induction of apoptosis in human HCT116 cells assessed as early apoptotic cell level at 5 ug/ml incubated for 48 hrs by annexin-V/PI staining based flow cyclometry (reference value: 1.84%); type: functional
[33] = system: HCT-116; test: Induction of mitochondrial membrane potential loss in human HCT116 cells at 20 ug/ml incubated for 48 hrs by RH123.dye based FCM analysis (reference value: 6.37%); type: functional
[34] = system: HCT-116; test: Induction of apoptosis in human HCT116 cells assessed as reduction in Bcl2 protein expression incubated for 48 hrs by Western blot analysis; type: functional, cell-based
[35] = system: HCT-116; test: Induction of apoptosis in human HCT116 cells assessed as late apoptotic cell level at 10 ug/ml incubated for 48 hrs by annexin-V/PI staining based flow cyclometry (reference value: 5.11%); type: functional
[36] = system: HCT-116; test: Induction of apoptosis in human HCT116 cells assessed as necrotic cell level at 20 ug/ml incubated for 48 hrs by annexin-V/PI staining based flow cyclometry (reference value: 4.9%); type: functional
[37] = system: DLD-1; test: Inhibition of cell motility associated protein expression in human DLD1 cells assessed as effect on TIMP2 expression at 5 to 20 ug/ml incubated for 48 hrs by Western blot analysis; type: functional, cell-based
[38] = system: HCT-116; test: Antitumor activity against human HCT116 cells xenografted in BALB/c mouse assessed as inhibition of tumor growth at 10 to 20 mg/kg, ip dosed daily for 21 days starting from 1 day post implantation and measured every three days; type: functional, organism-based
[39] = system: DLD-1; test: Inhibition of cell migration in human DLD1 cells at 5 to 20 ug/ml incubated for 48 hrs by Transwell migration assay; type: functional, cell-based
[40] = system: HCT-116; test: Induction of mitochondrial membrane potential loss in human HCT116 cells at 5 to 20 ug/ml incubated for 48 hrs by RH123.dye based FCM analysis; type: functional, cell-based
[41] = system: HCT-116; test: Induction of apoptosis in human HCT116 cells assessed as late apoptotic cell level at 5 ug/ml incubated for 48 hrs by annexin-V/PI staining based flow cyclometry (reference value: 5.11%); type: functional

C=C(C)[C@@H]1CC[C@]2(C(=O)O)CC[C@]3(C)[C@H](CC[C@@H]4[C@@]5(C)CC[C@H](O)C(C)(C)[C@@H]5CC[C@]43C)[C@@H]12 [BETULINIC ACID]
Activity [1]: 18.9% | Activity [2]: Dose-dependent effect | Activity [3]: 9.58% | Activity [4]: 6.72% | Activity [5]: 10.9% | Activity [6]: 73.8% | Activity [7]: Non-Toxic | Activity [8]: Non-Toxic | Activity [9]: Dose-dependent effect | Activity [10]: 7.94% | inhibition [11]: Active | Activity [12]: Dose-dependent effect | Activity [13]: 17.2% | inhibition [14]: Active | Activity [15]: 2.33% | Activity [16]: Active | Activity [17]: Non-Toxic | Activity [18]: Non-Toxic | inhibition [19]: Active | Activity [20]: Non-Toxic | Activity [21]: 79% | inhibition [22]: Active | Activity [23]: Dose-dependent effect | Activity [24]: 53.5% | inhibition [25]: Active | Activity [26]: 25.2% | Activity [27]: 19.5% | Activity [28]: 13.6% | Activity [29]: Non-Toxic | inhibition [30]: Active | inhibition [31]: Active | Activity [32]: 1.63% | Activity [33]: 21.3% | Activity [34]: Dose-dependent effect | Activity [35]: 13% | Activity [36]: 14.5% | inhibition [37]: Active | TGI [38]: Active | Activity [39]: Active | Activity [40]: Active | Activity [41]: 11.5%
